Results from the Biogen ADME set (Fang et al. 2023).
≈ marks a conversion by molar mass, not a printed value.

Conditions: for aqueous solubility: pH 6.8

| Compound | MDR1-MDCK efflux ratio | intrinsic clearance, human liver microsomes [mL/min/kg] | intrinsic clearance, rat liver microsomes [mL/min/kg] | aqueous solubility [µg/mL] | fraction unbound, human plasma | fraction unbound, rat plasma |
| --- | --- | --- | --- | --- | --- | --- |
| CC(=O)N1CCC(c2ccccn2)CC1 | 0.791 | ≤ 4.74 | ≤ 10.7 | 48.3 (≈ 237 µM) |  |  |
| Cc1cc(C(F)(F)F)nc(CCNC(=O)N(C)Cc2c(C)noc2C)n1 | 16.4 | 172 | 578 |  |  |  |
| COc1cccc2c1OC(C)(C)[C@@H]1C[C@H]3CNCC[C@H]3O[C@@H]21 | 17.1 | ≤ 4.74 | 51.5 | 53.4 (≈ 176 µM) |  |  |
| Cc1ccc2c(CC(=O)N(C)CC(N)=O)coc2c1C |  |  |  | 34.9 (≈ 127 µM) |  |  |
| CNCc1cc(N(C)C)nc(C2CCCN2C(=O)COC)n1 (configuration not stated) | 5.05 | ≤ 4.74 | ≤ 10.7 |  |  |  |
| COc1cc(CN2C[C@H]3CCc4c(nc(C)[nH]c4=O)[C@H]3C2)cc(OC)c1OC | 47.5 | ≤ 4.74 | ≤ 10.7 |  |  |  |
| CC(C)[C@H](NC(=O)c1c(F)cccc1F)C(=O)N1CCOCC1 | 8.08 | ≤ 4.74 | ≤ 10.7 | 50.7 (≈ 155 µM) |  |  |
| CN(C(=O)CSC(C)(C)C)c1ccccc1C#N | 0.808 | 47.3 | 687 |  |  |  |
| CC1(C)CC(=O)c2c(C(F)(F)F)nn(-c3ccc(C(N)=O)c(N[C@H]4CC[C@@H](O)CC4)c3)c2C1 | 109 | 47.7 | 108 |  |  |  |
| O=C1/C(=C2/CCCCCN2)C(Nc2ccccc2)=NN1c1ccccc1 | 0.737 |  |  | 0.54 (≈ 1.56 µM) |  |  |
| CC(C)c1nc(NCc2cccnc2)n(C)n1 | 3.72 | ≤ 4.74 | ≤ 10.7 | 38.2 (≈ 165 µM) |  |  |
| O=C(Cc1cn2ccccc2n1)N1CCC(n2c(=O)[nH]c3ccccc32)CC1 | 24.3 | 33.8 | 389 |  |  |  |
| CSc1ccc(-c2ccc3n(c2=O)C[C@H]2C[C@@H]3CN(C(=O)c3ccncc3)C2)cc1 | 44 | 54 | 357 | 37.5 (≈ 89.8 µM) |  |  |
| CCCn1cc(C(=O)N2CCC(c3n[nH]cc3C(=O)N3CCOCC3)CC2)cn1 | 15.3 | ≤ 4.74 | 11.4 | 54.1 (≈ 135 µM) |  |  |
| CN(Cc1n[nH]c2c1CCCC2)c1nccnc1C#N | 1.01 | 39.6 | 1140 | 20.5 (≈ 76.4 µM) |  |  |
| C1CCN(c2nc(NC3CC3)nc(N3CCCCC3)n2)CC1 | 0.301 |  |  | 0.62 (≈ 2.05 µM) |  |  |
| CN1CCN(C(=O)c2cc(Br)cnc2Cl)c2cnccc21 | 4.54 | 9.09 | 90.8 | 57.8 (≈ 157 µM) |  |  |
| CCC(=O)N1CCCC(C(=O)N2CCc3c(Cl)cc(Cl)cc3C2C)C1 (configuration not stated) |  | 416 | 1510 | 54.8 (≈ 143 µM) |  |  |

The next lines start with the values.

| MDR1-MDCK efflux ratio | intrinsic clearance, human liver microsomes [mL/min/kg] | intrinsic clearance, rat liver microsomes [mL/min/kg] | aqueous solubility [µg/mL] | fraction unbound, human plasma | fraction unbound, rat plasma | Compound |
| --- | --- | --- | --- | --- | --- | --- |
| 1.26 | ≤ 4.74 | ≤ 10.7 | 52.2 (≈ 201 µM) |  |  | O=C(NCC1CC1)c1cncn1-c1ccc(F)cc1 |
| 26.3 | ≤ 4.74 | 45.2 | 74.1 |  |  | COc1cccc(C(=O)C[n+]2cc(-c3ccc(F)cc3)n(C)c2N)c1 |
| 35.9 | ≤ 4.74 | 51.3 |  |  |  | O=c1c2ccccc2cnn1Cc1cccc(OCC(F)(F)F)c1 |
| 0.545 | 62.5 | 334 | 35.7 (≈ 131 µM) |  |  | COc1ccc(C)cc1-n1ccc(C(=O)NC(C)C)n1 |
|  |  |  | 11.6 (≈ 52.2 µM) |  |  | NC(=O)Cn1nnc(-c2ccccc2F)n1 |
|  |  |  | 0.47 (≈ 1.15 µM) |  |  | C[C@@H](c1ccc(F)cc1)n1nnc2cnc3ccc(-c4ccc5ocnc5c4)cc3c21 |
| 0.442 | 73.8 | 429 | 2.61 (≈ 8.6 µM) |  |  | COCc1ccccc1CNc1ccc2cc(C#N)ccc2n1 |
| 19.9 | 51.5 | 616 |  |  |  | COc1ccc(OC)c(S(=O)(=O)NCCC(=O)Nc2ccccc2C)c1 |
|  | 30.8 | 166 |  |  |  | CCOC(=O)c1c(C)n(C)c2ccc(O)cc12 |
| 6.11 | 26.4 | 131 | 56.2 (≈ 181 µM) |  |  | CN(CC(=O)Nc1cccc(F)c1)C(=O)c1cccc(C#N)c1 |
|  | ≤ 4.74 | ≤ 10.7 |  |  |  | Cc1nc(CS(C)(=O)=O)sc1C(=O)Nc1ccccc1 |
| 2.39 |  |  |  |  |  | CC[C@@H]1CN(c2ccc(C(=O)Nc3cn4cc(C)nc4cn3)c(F)c2)CCN1 |
| 0.565 | 123 | 1950 | 9.67 (≈ 28.9 µM) |  |  | O=C(NCCc1ccc2c(c1)OCCO2)c1ccc2ccccc2n1 |
|  | ≤ 4.74 | 104 | 41.5 (≈ 110 µM) |  |  | CN1C(=O)[C@@H](NC(=O)c2nnc(Cc3ccccc3)[nH]2)COc2ccccc21 |
| 17.5 | ≤ 4.74 | 512 | 39.1 (≈ 107 µM) |  |  | COc1cccc(OCCCN)c1-c1cc(Nc2cnc(C#N)cn2)n[nH]1 |
| 61.1 | 20.4 | 101 | 40.1 (≈ 93.6 µM) |  |  | O=C(C1CC1)N1CC[C@@H](Cc2n[nH]c(=O)n2-c2ccc(-c3ccc4occc4c3)cc2)C1 |
|  | ≤ 4.74 | 1850 |  |  |  | COc1ccc(NC(=O)CN2CCCC2)cc1 |
| 2.57 | ≤ 4.74 |  | 66.1 (≈ 180 µM) | 0.0094 | 0.0056 | N#Cc1cc(F)c(NS(=O)(=O)c2c[nH]c3cc(Cl)ccc23)cc1F |
| 0.529 | 464 | 6110 | 8.17 (≈ 27 µM) |  |  | Cc1ccc(-c2nc(CC(=O)NCCC(C)C)cs2)cc1 |
| 0.8 | ≤ 4.74 | 122 | 55 (≈ 163 µM) |  |  | Cc1cc(Oc2ncccn2)ccc1NC(=O)c1c(C)oc(C)c1C |
| 0.627 | ≤ 4.74 | 70.4 | 53 (≈ 228 µM) |  |  | CON(C)C(=O)Cc1c(C)[nH]c2ccccc12 |
| 48.2 | 40.5 | 322 | 61.3 (≈ 145 µM) |  |  | Cn1c(-c2ccc(F)cc2)cnc1NC(=O)CCC(=O)N1CC(=O)Nc2ccccc21 |
|  | ≤ 4.74 | 151 | 25.4 (≈ 103 µM) |  |  | COc1ccc(CCCNc2nnc(C)o2)cc1 |
